According to patent publication US7049116B2, “Engineered protein kinases which can utilize modified nucleotide triphosphate substrates” (Princeton University, priority 1997, dated 2006):
Entries after “also recorded” stand apart in the source; their conditions may differ.

Assays:
wild-type Fyn = wild-type Fyn (Homo sapiens, UniProt P06241); experiment: Peptide phosphorylation assay with [γ-32P]ATP (Example 13); format: biochemical; details: purified kinase; read-out: IC50 for inhibition of wild-type Fyn
Source text: To identify compounds that would not inhibit any existing cellular kinases, Applicant screened the panel of synthetic pyrazolo pyramidine analogs (1-6) against two closely related purified tyrosine kinases, v-Src and Fyn, in a peptide phosphorylation assay using [γ-^32P]

[1] = system: NIH3T3 cells expressing v-Src; experiment: Anti-phosphotyrosine blots of pyrazolopyrimidine treated NIH3T3 cells (Examples 18-19); format: cell-based; details: FIG. 12B two left lanes
Experimental: Anti-phosphotyrosine blots of pyrazolo pyrimidine (2-6) (25 μM) treated NIH3T3 cells expressing v-Src kinase were performed by lysing cells in modified RIPA buffer according to the method of Coussens et al. (1985) Biol. 2753-2763. Cells were also treated for various times before lysis and antiphosphotyrosine detection. Proteins were separated by 12.5% SDS-PAGE and transferred to Protran BA85 (Schleicher-Schuell). The blot was probed with the antiphosphotyrosine monoclonal antibody 4G10 (obtained from Dr. Brian Druker, Oregon Health Sciences Center) and the bound antibody was detected via enhanced chemiluminescence (Pierce) following treatment with HRP-coupled goat anti-mouse antibody (VWR) according to the manufacturer's instructions.
The assays were performed by making anti-phosphotyrosine blots of pyrazolopyrimidine (26) (25 μM) treated NIH3T3 cells expressing either v-Src or v-Src (I338G) kinases were performed by lysing cells in modified RIPA buffer according to the method of Coussens et al. (1985) Biol. 2753-2763. […]
(§4) The blot was probed with the anti-phosphotyrosine monoclonal antibody 4G10 and the bound antibody was detected via enhanced chemiluminescence (Pierce) following treatment with HRP-coupled goat-anti-mouse antibody (VWR) according to the manufacturer's instructions.

[2] = system: NIH3T3 cells expressing v-Src (I338G); experiment: Anti-phosphotyrosine blots of pyrazolopyrimidine treated NIH3T3 cells (Example 19); format: cell-based
Experimental: The assays were performed by making anti-phosphotyrosine blots of pyrazolopyrimidine (26) (25 μM) treated NIH3T3 cells expressing either v-Src or v-Src (I338G) kinases were performed by lysing cells in modified RIPA buffer according to the method of Coussens et al. (1985) Biol. 2753-2763. Cells were also treated for various times (in a cell culture CO2 incubator) before lysis and anti-phosphotyrosine detection. Proteins were separated by 12.5% SDS-PAGE and transferred to Protran BA85 (Schleicher-Schuell).
as §4

I338G v-Src [3] = target: T1, I338G v-Src (Rous sarcoma virus subgroup A, UniProt P00524, DEL77-225/I338G); experiment: biochemical
T1 construct: made in house; host or cells: E. coli DH5α (pGEX-KT)

I338G v-Src [4] = experiment: biochemical; design: species or system Rous sarcoma virus
T339G Fyn = target: T2, T339G Fyn (Homo sapiens, UniProt P06241, T342G); experiment: In vitro kinase inhibition assay; format: biochemical
T2 construct: GST; made in house; host or cells: E. coli DH5α (pGEX-KT)

PKCδ = target: T3, PKCδ (Homo sapiens, UniProt Q05655); experiment: In vitro kinase inhibition assay; format: biochemical; design: dose or concentration left out as unconfirmed
T3 construct: 6-His; made in house; host or cells: Bac-to-Bac baculovirus system (pFastBac B vector)
Experimental: (§1) IC50's for non-src family kinases were measured equivalently with the following exceptions. […] An optimized Abl substrate, […] (SEQ ID NO: 18), 133 mg/ml) was used for Abl assays.

PKA = target: T4, PKA (Homo sapiens, UniProt P17612); experiment: In vitro kinase inhibition assay; format: biochemical; details: concentrations up to 300 mM
T4 construct: purchased Pierce
Experimental: as §1

[5] = system: I338G v-Src transformed NIH3T3 cells; experiment: Inhibition of v-Src in NIH3T3 fibroblasts (phosphotyrosine blot); format: cell-based
Experimental: (§2) Non-transformed NIH3T3 cells, WT v-Src transformed NIH3T3 cells, and I338G v-Src transformed NIH3T3 cells were incubated at 37° C. with 1.1% DMSO or 100 μM (3g) in 1.1% DMSO. After twelve hours, the cells were washed with PBS and lysed (lysis buffer: 1% Triton x-100, 50 mM tris (pH 7.4), 2 mM EDTA, 150 mM NaCl, […], 2 mM sodium orthovanadate, 10 mg/ml leupeptin, 10 mg/ml apoprotin). The lysate was clarified by centrifugation at 13,000 rpm for fifteen minutes. Lysate protein concentrations were normalized and equal volumes of the lysate were resolved electrophoretically and analyzed for phosphotyrosine content as described above.

[6] = system: WT v-Src transformed NIH3T3 cells; experiment: as above; format: cell-based; details: 100 μM, twelve hours
Experimental: as §2

[7] = system: I338G v-Src transformed NIH-3T3 fibroblasts; experiment: Microscopy of transformed fibroblasts (light microscopy, phalloidin-FITC); format: cell-based; details: 100 μM, 48 hours
Experimental: (§3) Non-transformed, WT v-Src transformed, and I338G v-Src transformed NIH-3T3 fibroblasts were grown in DMEM/10% BCS on tissue culture treated slides. v-Src expressing cells were treated with either 1.1% DMSO or 100 μM (^3g) in 1.1% DMSO. After forty-eight hours cells were photographed at 400× magnification on an Nikon TMS light microscope. Immediately following light microscopy, the cells were fixed for twenty minutes in 3.7% formaldehyde/PBS and permeabilized for sixty seconds in 0.2% Triton x-100 in PBS. Permeabilized cells were incubated with 200 ng/ml phalloidin-FITC/PBS for twenty minutes. Slides were rinsed with PBS and polymerized actin was visualized by fluorescence microscopy at 600× magnification on a Zeiss fluorescence microscope.

[8] = system: WT v-Src transformed NIH-3T3 fibroblasts; experiment: as above; format: cell-based; details: 100 μM, 48 hours
Experimental: as §3

T2 sequence (P06241 1-534 isoform P06241-2 T339G): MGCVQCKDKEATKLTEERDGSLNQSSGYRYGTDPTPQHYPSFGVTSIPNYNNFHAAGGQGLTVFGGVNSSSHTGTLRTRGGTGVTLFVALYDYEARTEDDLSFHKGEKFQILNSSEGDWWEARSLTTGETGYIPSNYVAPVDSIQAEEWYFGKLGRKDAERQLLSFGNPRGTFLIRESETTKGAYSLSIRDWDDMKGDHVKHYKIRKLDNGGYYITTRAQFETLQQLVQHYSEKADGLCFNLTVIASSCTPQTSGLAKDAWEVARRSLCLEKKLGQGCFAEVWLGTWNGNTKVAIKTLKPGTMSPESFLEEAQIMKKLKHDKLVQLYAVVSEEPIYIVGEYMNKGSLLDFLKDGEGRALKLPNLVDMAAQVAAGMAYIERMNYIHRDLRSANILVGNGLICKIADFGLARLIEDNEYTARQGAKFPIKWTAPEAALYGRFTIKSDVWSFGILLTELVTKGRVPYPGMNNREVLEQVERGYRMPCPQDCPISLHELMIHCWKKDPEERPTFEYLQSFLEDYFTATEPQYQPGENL
Sequence of wild-type Fyn (P06241 whole entry, species assumed): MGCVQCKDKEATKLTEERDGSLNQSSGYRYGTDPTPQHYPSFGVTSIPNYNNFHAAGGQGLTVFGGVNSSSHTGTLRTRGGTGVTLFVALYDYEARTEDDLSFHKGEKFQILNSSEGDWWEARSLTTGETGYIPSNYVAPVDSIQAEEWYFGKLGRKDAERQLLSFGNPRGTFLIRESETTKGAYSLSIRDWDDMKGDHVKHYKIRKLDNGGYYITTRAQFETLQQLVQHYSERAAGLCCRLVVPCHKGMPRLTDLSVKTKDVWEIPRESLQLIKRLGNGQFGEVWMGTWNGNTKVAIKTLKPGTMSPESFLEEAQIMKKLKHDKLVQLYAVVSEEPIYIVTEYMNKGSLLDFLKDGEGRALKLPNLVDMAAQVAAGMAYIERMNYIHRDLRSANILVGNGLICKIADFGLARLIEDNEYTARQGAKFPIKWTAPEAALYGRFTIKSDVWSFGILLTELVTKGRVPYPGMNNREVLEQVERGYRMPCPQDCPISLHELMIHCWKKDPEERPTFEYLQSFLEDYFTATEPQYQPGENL
T3 sequence (Q05655 whole entry): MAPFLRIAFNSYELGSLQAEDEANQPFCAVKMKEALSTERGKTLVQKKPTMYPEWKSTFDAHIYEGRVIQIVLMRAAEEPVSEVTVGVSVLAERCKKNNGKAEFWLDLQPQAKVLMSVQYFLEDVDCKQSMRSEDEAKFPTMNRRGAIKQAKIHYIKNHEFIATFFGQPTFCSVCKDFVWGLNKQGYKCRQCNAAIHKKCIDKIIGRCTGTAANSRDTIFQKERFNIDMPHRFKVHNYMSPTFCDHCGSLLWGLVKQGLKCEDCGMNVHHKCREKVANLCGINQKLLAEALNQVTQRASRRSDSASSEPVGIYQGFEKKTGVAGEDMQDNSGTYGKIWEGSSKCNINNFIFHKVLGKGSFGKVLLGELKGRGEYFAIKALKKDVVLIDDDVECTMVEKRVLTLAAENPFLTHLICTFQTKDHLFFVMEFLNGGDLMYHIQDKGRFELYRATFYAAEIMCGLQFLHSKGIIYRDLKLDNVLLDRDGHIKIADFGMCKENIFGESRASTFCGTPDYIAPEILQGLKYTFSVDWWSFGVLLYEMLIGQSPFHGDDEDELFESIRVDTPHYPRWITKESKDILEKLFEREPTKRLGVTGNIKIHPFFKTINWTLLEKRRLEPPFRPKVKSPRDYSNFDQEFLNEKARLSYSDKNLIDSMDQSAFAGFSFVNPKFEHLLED

With `CC(C)(C)n1nc(-c2ccccc2)c2c(NC(=O)C3CCCC3)ncnc21` [Analog 3b, 4-cyclopentylamido-1-tert-butyl-3-phenylpyrazolo[3,4]pyrimidine] the IC50 (wild-type Fyn) was greater than 400000 nM, the phosphoprotein band pattern [1] was “does not inhibit wild type v-Src kinase” and the “36 kDa phosphoprotein band” value ([2]; 100 μM) was “lost after treatment”. For the same compound, the “inhibitor concentration at which phosphorylation of the 36 kDa band reappears” value ([2]; inhibitor diluted) was less than 5 pM.
In the case of `CC(C)(C)c1ccc(C(=O)Nc2ncnc3c2c(-c2ccccc2)nn3C(C)(C)C)cc1` [Analog 3g, 4-(p-tert-butyl)benzamido-1-tert-butyl-3-phenylpyrazolo[3,4-d]pyrimidine], the IC50 (I338G v-Src [3]) is reported as 430 nM, the Ki (I338G v-Src [3]) is reported as roughly 400 nM and the mode of inhibition (I338G v-Src [3]; Lineweaver-Burk analysis) is reported as “competitively with respect to ATP”. The “selectivity for engineered v-Src over WT Fyn” value (I338G v-Src [4]; I338G v-Src vs WT Fyn) was “over 700 times”, the “selectivity for mutant v-Src as compared to wild type” value (I338G v-Src [4]; I338G v-Src vs WT v-Src) was “at least a thousand-fold” and the IC50 (T339G Fyn) was 830 nM. The “selectivity for T339G Fyn over WT Fyn” value (T339G Fyn) was “greater than 300 fold”, the “inhibition of PKCδ” value (PKCδ) was “not detectably inhibited” and the “inhibition of PKA” value (PKA) was “not detectably inhibited”. For the same compound, the “cellular IC50 relative to the in vitro value” [5] was “roughly one-hundred times”, the “cellular level of phosphotyrosine” value ([5]; 100 μM, twelve hours) was “moderate overall decrease” and the “tyrosine phosphorylation of p36” value ([5]; 100 μM, twelve hours) was “dramatic diminution; also recorded: blocks p36 phosphorylation”. For the same compound, the IC50 ([5]; Mus musculus, NIH3T3, read-out: IC50 for p36 phosphotyrosine signal) was 50000 nM, the “tyrosine phosphorylation in WT v-Src infected cells” value [6] was “no loss of tyrosine phosphorylation” and the “polymerized actin pattern (phalloidin-FITC)” value ([7]; fluorescence microscopy) was “defined polymerized actin strings; also recorded: selectively regain actin stress fibers”. For the same compound, the cell morphology ([7]; light microscopy) was “dramatic changes in cell morphology which are consistent with the reversal of transformation; also recorded: selectively acquire a flattened morphology”, the “polymerized actin pattern (phalloidin-FITC)” value ([8]; fluorescence microscopy) was “indistinguishable from untreated WT cells” and the cell morphology ([8]; light microscopy) was “prototypical rounded morphology and overlapping growth patterns of transformed cells”.
